One data set concerns the target T1, Human Factor XIIa (Homo sapiens, UniProt P00748).
T1 construct: Proteolytic cleavage of FXII to heavy and light chains of FXIIa dramatically increases catalytic activity; purchased Enzyme Research Laboratories
T1 sequence (P00748 373-615 limits assumed): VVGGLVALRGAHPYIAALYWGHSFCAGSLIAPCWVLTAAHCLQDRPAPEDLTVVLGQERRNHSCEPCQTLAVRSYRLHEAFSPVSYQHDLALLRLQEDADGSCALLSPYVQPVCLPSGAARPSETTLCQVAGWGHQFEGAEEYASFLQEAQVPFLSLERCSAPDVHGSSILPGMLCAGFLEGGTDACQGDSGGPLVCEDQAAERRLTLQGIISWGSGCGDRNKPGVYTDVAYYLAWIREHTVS
T1 sequence (P00748 20-372 partner limits assumed): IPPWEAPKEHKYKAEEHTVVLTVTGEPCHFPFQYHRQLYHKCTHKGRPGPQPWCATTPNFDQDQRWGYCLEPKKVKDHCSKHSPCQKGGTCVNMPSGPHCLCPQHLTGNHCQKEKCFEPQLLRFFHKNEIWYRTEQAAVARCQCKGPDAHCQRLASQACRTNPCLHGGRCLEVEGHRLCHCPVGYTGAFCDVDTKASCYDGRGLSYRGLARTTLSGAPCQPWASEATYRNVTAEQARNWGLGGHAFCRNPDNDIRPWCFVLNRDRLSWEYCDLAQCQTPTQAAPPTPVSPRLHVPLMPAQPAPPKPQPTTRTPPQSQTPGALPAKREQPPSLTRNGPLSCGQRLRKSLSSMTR
As to the kind of experiment: Determination of FXIIa inhibition (fluorogenic substrate H-DPro-Phe-Arg-AFC, IC50 assay). In kind it is biochemical. The following applies: substrate at Km concentration, 25° C.; category scale; read-out: Human FXII IC50 (nm). The essentials: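 At substrate Km and 25° C., the rate of AFC release from H-DPro-Phe-Arg-AFC by human Factor XIIa was followed for 5 min across compound concentrations. Inhibition was derived as percent of uninhibited rate, giving IC50.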

The next data set concerns the target T2, Plasma Kallikrein (Homo sapiens, UniProt P03952).
T2 construct: FXIIa converts plasma prekallikrein (PK) to plasma kallikrein (PKa)
As to the kind of experiment: Related protease inhibition: Plasma Kallikrein (fluorogenic substrate at Km). In kind it is biochemical. The following applies: class symbols per Table 18, read-out: IC50 (human PKal). The essentials:
(§1)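 Fluorogenic substrate at Km for thrombin, trypsin and plasma kallikrein; FXIa run at fixed 100 μM substrate. Varied inhibitor concentrations, fluorescence accumulation read over 5 min, 25° C. IC50 = concentration giving 50% inhibition versus uninhibited (100%) activity.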

For the next data set, the target named is KLK1 (Homo sapiens, UniProt P06870). As to the kind of experiment: Related protease inhibition: KLK1 (fluorogenic substrate at Km). In kind it is biochemical. To be noted: class symbols per Table 18. The essentials: (§2)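 Each human protease was incubated with substrate and test compound over a concentration range; fluorescence release was then recorded for 5 min at 25° C. Rates were normalized to uninhibited enzyme (100%) to derive IC50.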

A further data set concerns the target FXa (Homo sapiens, UniProt P00742). As to the kind of experiment: Related protease inhibition: FXa (fluorogenic substrate at Km). In kind it is biochemical. To be noted: class symbols per Table 18. The essentials:
as §2

The target in another data set is Plasmin (Homo sapiens, UniProt P00747). Kind of data set: Related protease inhibition: Plasmin (fluorogenic substrate at Km). In kind it is biochemical. The following applies: class symbols per Table 18. The essentials:
as §2

The target of a further data set is Thrombin (Homo sapiens, UniProt P00734). As to the kind of experiment: Related protease inhibition: Thrombin (fluorogenic substrate at Km). In kind it is biochemical. To be noted: class symbols per Table 18. The essentials:
as §1

For a further data set, the target named is Trypsin (Homo sapiens, UniProt P07477). Kind of data set: Related protease inhibition: Trypsin (fluorogenic substrate at Km). Format: biochemical. To be noted: class symbols per Table 18. The essentials: as §1
The next data set deals with FXIa (Homo sapiens, UniProt P03951). As to the kind of experiment: Related protease inhibition: FXIa (fixed substrate concentration of 100 μM). In kind it is biochemical. The following applies: class symbols per Table 18. The procedure:
In vitro inhibition of related proteases was determined using an IC50 assay based on standard literature methods (see e.g. Shori et al., Biochem. Pharmacol., 1992, 43, 1209; Bouckaert et al., European Journal of Medicinal Chemistry 110 (2016) 181). Human serine protease enzyme Plasma Kallikrein, KLK1, FXa, Plasmin, Thrombin and Trypsin were assayed for enzymatic activity using an appropriate fluorogenic substrate at Km concentration, FXIa at fixed substrate concentration of 100 μM and various concentrations of the test compound. Protease activity was measured by monitoring the accumulation of liberated fluorescence from the substrate over 5 min at 25° C. The linear rate of fluorescence increase per minute was expressed as percentage (%) activity. IC50 values were calculated as the concentration of inhibitor giving 50% inhibition of the uninhibited enzyme activity (100%).

A short description of data set [1]: Pharmacokinetics after single intravenous and single oral dose in rats. In kind it is in vivo. To be noted: rat, plasma, male Sprague-Dawley rats, single iv (nominal 1 mg/kg) and single po (nominal 5 mg/kg) dose. Here is the method: Pharmacokinetic studies of the compounds in Table 19 were performed to assess the pharmacokinetics following a single intravenous dose and a single oral dose in male Sprague-Dawley rats. Two rats were given a single intravenous dose of 1 mL/kg of a nominal 1 mg/ml (1 mg/kg) composition of test compound in 10% DMSO/10% Cremophor EL/80% SWFI vehicle. Two rats were given a single oral dose of 5 ml/kg of a nominal 1 mg/mL (5 mg/kg) composition of test compound in 10% DMSO/10% Cremophor EL/80% SWFI vehicle.
Following intravenous dosing, blood samples were collected over a period of 12 h. Sample times were 2, 5, 15 and 30 min then 1, 2, 4, 6, and 12 h. Following oral dosing, blood samples were collected over a period of 24 h. Sample times were 5, 15 and 30 min then 1, 2, 4, 6, 8, 12 and 24 h.
Following collection, blood samples were centrifuged and the plasma fraction analysed for concentration of test compound by LCMS. Oral bioavailability and half-life calculations from these studies were obtained using Phoenix WinNonlin (v8.0) and are shown below: […]

For data set [2], the system named is patients with type I/II hereditary angioedema (HAE). To be noted: phase 2, monthly prophylactic subcutaneous treatment; cited from earlier work.

The values below come from patent US20240327412A1, “FACTOR XIIA INHIBITORS” (KALVISTA PHARMACEUTICALS LIMITED, priority 2021, published 2024).

Sequence of KLK1 (P06870 25-262): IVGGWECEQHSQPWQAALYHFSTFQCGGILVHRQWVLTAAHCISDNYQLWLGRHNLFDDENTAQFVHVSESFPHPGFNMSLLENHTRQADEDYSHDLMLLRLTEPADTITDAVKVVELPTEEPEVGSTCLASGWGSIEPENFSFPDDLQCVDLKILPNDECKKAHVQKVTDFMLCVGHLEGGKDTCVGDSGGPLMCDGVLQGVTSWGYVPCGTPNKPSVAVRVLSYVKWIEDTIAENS
Sequence of Plasmin (P00747 581-810 limits assumed): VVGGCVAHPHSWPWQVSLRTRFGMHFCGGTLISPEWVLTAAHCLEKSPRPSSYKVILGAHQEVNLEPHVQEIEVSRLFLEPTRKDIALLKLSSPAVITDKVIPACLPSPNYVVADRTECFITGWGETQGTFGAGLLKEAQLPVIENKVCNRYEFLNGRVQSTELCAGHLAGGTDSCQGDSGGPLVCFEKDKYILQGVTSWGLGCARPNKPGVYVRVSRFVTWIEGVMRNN
Sequence of Plasmin (P00747 97-580 partner limits assumed): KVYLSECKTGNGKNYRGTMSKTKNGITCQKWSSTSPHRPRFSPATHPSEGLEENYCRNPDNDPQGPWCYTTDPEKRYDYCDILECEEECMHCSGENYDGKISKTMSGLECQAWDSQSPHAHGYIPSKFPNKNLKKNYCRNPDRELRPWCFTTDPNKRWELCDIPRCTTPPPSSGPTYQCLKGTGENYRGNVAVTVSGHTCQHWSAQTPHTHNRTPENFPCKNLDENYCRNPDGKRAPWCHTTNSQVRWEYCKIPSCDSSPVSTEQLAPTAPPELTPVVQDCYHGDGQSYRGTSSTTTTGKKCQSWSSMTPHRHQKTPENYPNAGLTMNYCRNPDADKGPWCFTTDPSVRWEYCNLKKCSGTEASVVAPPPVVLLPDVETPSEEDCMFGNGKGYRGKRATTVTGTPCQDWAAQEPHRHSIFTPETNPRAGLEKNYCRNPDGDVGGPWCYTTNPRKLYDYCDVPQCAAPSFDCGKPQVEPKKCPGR
Sequence of FXa (P00742 235-488 limits assumed): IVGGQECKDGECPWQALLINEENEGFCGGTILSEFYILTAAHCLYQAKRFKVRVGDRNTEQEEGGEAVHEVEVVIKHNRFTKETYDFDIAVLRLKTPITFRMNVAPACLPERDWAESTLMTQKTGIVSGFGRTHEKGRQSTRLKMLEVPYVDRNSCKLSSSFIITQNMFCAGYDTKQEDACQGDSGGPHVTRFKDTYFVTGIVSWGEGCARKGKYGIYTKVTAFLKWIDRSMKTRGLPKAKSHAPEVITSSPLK
Sequence of FXa (P00742 41-179 partner limits assumed): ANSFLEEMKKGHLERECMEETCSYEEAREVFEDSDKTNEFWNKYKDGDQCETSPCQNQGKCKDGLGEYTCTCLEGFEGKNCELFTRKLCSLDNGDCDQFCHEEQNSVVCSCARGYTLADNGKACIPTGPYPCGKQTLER
T2 sequence (P03952 391-638 limits assumed): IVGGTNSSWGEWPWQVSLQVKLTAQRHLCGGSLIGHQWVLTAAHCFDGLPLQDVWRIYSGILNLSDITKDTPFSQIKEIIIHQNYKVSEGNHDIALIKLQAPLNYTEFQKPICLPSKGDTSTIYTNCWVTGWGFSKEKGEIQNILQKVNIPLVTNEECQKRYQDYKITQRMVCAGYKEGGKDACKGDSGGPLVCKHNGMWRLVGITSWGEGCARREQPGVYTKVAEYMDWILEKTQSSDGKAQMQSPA
T2 sequence (P03952 20-390 partner limits assumed): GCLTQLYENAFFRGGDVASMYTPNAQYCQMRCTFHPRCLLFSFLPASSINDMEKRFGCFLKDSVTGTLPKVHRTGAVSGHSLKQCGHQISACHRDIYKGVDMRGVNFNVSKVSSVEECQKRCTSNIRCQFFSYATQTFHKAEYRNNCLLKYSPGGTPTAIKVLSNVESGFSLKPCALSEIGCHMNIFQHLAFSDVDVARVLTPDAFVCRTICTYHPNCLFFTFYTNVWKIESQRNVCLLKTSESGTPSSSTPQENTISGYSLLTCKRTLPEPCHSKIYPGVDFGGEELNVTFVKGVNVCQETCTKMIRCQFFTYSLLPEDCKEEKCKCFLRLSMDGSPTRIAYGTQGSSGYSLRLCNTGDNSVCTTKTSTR
Sequence of FXIa (P03951 388-625 limits assumed): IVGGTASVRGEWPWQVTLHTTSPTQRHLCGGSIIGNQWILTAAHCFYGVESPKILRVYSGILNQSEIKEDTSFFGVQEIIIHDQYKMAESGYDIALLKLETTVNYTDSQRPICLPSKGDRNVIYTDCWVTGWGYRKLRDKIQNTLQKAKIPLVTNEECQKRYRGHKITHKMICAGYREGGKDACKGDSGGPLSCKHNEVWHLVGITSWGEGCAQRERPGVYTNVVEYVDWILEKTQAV
Sequence of FXIa (P03951 19-387 partner limits assumed): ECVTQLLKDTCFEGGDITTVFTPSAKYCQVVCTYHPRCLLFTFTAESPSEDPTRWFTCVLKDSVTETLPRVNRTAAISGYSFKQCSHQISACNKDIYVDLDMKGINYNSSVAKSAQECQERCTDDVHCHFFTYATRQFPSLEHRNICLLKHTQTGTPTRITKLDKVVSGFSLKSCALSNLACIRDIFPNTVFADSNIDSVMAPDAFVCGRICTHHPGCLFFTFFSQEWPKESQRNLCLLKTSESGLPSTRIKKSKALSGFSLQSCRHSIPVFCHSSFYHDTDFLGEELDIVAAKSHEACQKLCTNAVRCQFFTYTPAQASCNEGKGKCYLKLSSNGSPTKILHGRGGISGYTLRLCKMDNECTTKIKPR

Turning to `Nc1nccc2c(NCC34CC(COC5CCn6ccnc6C5)(C3)C4)cccc12` (racemic) [Example 1002, N5-((3-(((5,6,7,8-Tetrahydroimidazo[1,2-a]pyridin-7-yl)oxy)methyl)bicyclo[1.1.1]pentan-1-yl)methyl)isoquinoline-1,5-diamine], the IC50 – broadly, the point on the concentration scale where inhibition reaches its midpoint – at Human Factor XIIa was 0.1 to 0.3 µM; on Plasma Kallikrein, above 40 µM; against KLK1, 3 to 10 µM; at FXa it was 10 to 40 µM; against Plasmin, above 40 µM; at Thrombin it was 10 to 40 µM. Further, the results for the IC50 at Trypsin and against FXIa were 10 to 40 µM and above 40 µM, respectively.
For the compound `Nc1nccc2c(NCC34CC(COc5ccn6ccnc6c5)(C3)C4)cccc12` [Example 1001, N5-((3-((Imidazo[1,2-a]pyridin-7-yloxy)methyl)bicyclo[1.1.1]pentan-1-yl)methyl)isoquinoline-1,5-diamine], the IC50 at Human Factor XIIa is 0.1 to 0.3 µM; on Plasma Kallikrein, above 40 µM; against KLK1, 3 to 10 µM; against FXa, 10 to 40 µM; on Plasmin it was above 40 µM; on Thrombin, 10 to 40 µM. Also, the IC50 on Trypsin and against FXIa was above 40 µM in each case. Further, the half-life (as a rule, the time needed for the level to fall by half in the phase considered) in data set [1] (half-life, Phoenix WinNonlin) was 7.83 h. The bioavailability (in general, dose-corrected exposure relative to a reference, in per cent) in [1] (oral bioavailability, 10% DMSO/10% Cremophor EL/80% SWFI) was found to be 30.4%.
Take “Garadacimab: "a monoclonal antibody inhibitory against FXIIa"”: in [2], the preventing attacks entry was “effective in preventing attacks” and the tolerability result is listed as “well tolerated”.
